Assay results published in patent US20250243180A1, “TARGETED PROTEIN DEGRADATION” (Monte Rosa Therapeutics AG, priority 2023, published 2025).
Read-outs that look alike come from different tables or passages of the source.

How the values were obtained:
CRBN-DDB1 = CRBN-DDB1 (Homo sapiens (Human), UniProt Q96SW2); assay: Compound binding to CRBN by HTRF assay
Procedure: Compound activity was monitored in a Homogenous Time-Resolved Fluorescence (HTRF) assay using 1-[5-({2-[2-(2-{[2-(2,6-dioxopiperidin-3-yl)-1,3-dioxo-2,3-dihydro-1H-isoindol-4-yl]oxy}acetamido)ethoxy]ethyl}carbamoyl)pentyl]-3,3-dimethyl-2-[(1E,3E)-5-[(2E)-1,3,3-trimethyl-5-sulfo-2,3-dihydro-1H-indol-2-ylidene]penta-1,3-dien-1-yl]-3H-indol-1-ium-5-sulfonate as a fluorescent probe. Biochemical assays were conducted in Greiner white 384 well HiBase plates (Cat. No 784075-25) in 20 μL total volume. A one pot detection solution of CRBN-DDB1 (2.5 nM), Anti-His Terbium Cryptate Gold (1×, PerkinElmer Cat. #: 61HI2TLB), and Cy5-Thalidomide (100 nM, Tenova Cat.: T52461) was prepared in 20 mM HEPES, 20 mM NaCl, 0.2 mM TCEP, 0.2 mM EDTA, and 0.005% Tween20 was dispensed to each assay plate. Compounds were stored in dry, ambient temperatures at 10 mM. An 11-point, 1:3 dilution series was prepared from 10 mM stock concentrations in Echo-compatible LDV plates. 10 nL of each compound dilution series was dispensed into assays wells using an Echo 650 (Labcyte Inc. USA). 20 nL of 10 mM Lenalidomide was transferred into the active-control wells for the assay and 20 nL of DMSO was transferred into the neutral-control wells. The assay was then allowed to incubate for 30 min at ambient temperature after transferring compound. Plate measurements were taken on a Pherastar FSX (BMG Labtech, Germany) using the HTRF Red filter (Ex. 337 nm, em1: 620 nm, em2: 665 nm) (Flashes: 50, Integration time: 60-400 us, Z-height: 10 mm, Ratio-multiplier: 10,000). The HTRF signal was then subsequently normalized to the neutral and active controls. Analysis and EC50 values were derived using KNIME analytics (KNIME Zurich) transformation and fitting within Collaborative Drug Discovery (Collaborative Drug Discovery USA). Ki was derived from the geometric mean of the EC50 values using the Cheng-Prustoff transformation.

NEK7 = NEK7 (Homo sapiens (Human), UniProt Q8TDX7+Q96SW2); assay: NEK7 NanoBiT degradation assay in Cal51 NEK7 NanoBiT cell line; assay type: cell-based; settings: Cal51 NEK7 NanoBiT cells, 24 hours; for Dmax: CAL-51
Procedure: Cal51 NEK7 NanoBiT cell line was generated via CRISPR Knock-In of the HiBiT tag in NEK7 gene and stable infection with a lentivirus carrying LgBiT protein. The cell line was generated in house. For the experiment, cells were plated in 384-well white flat bottom plates (Corning, 3570BC) at 2500 cells per well using Multiflo (BioTek/Agilent) and in 25 μl volume in DMEM experimental medium: DMEM (DMEM, high glucose, HEPES, no phenol red (ThermoFisher Scientific, 21063029) supplemented with 10% FBS (Corning, 35-075-CV), 1% Penicillin/Streptomycin ((ThermoFisher Scientific, 15140-122), and 1% Endurazine (Nano-Glo Endurazine Live Cell Substrate (Promega, N2571)). Cells were incubated for 16 hours at 37° C., 5% CO2 before compound addition. For dose response determination, 2.5 nL of a compound at different concentrations (stock compound concentration range: 10 mM to 0.5 μM, final concentration range inside cell plate: 1 μM to 0.05 nM) were dispensed into the plate using an Echo® 650 liquid handling device (Backman Coulter/Labcyte). Cells were incubated at 37° C., 5% CO2 for 24 hours and then signal was read on a Pherastar FSX using “LUM plus” optic module with 4095 gain and measurement interval time 0.2 seconds.
Analysis was performed in Genedata Screener (Genedata, Basel, CH). Luminescence response (R) was calculated by the formula: response=100*(S−N)/(P−N) where S is the signal of the well, N and P the mean negative and positive control values respectively of the same plate. The luminescence response was then fitted in Genedata using a 4-parameter antagonist logistic fit (hill slope unconstrained, EC50>0, top/bottom unconstrained).

[1] = NEK7 degradation, read-out: NanoBiT Dmax
[2] = NEK7 degradation, read-out: NanoBiT DC50

Chain of CRBN-DDB1 (Q96SW2 whole entry): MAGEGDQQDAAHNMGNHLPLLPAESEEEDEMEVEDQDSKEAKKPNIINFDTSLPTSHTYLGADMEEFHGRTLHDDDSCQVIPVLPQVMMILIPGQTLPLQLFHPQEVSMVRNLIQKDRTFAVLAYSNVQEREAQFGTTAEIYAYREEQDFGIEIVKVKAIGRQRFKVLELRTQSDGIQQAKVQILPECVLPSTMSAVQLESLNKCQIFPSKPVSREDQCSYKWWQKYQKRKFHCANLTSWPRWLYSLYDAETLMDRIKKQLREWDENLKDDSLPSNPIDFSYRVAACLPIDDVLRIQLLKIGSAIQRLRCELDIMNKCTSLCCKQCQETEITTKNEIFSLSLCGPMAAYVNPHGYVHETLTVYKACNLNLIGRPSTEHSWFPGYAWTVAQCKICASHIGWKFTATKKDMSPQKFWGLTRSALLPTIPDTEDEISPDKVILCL
Chain of CRBN-DDB1 (Q16531 whole entry partner): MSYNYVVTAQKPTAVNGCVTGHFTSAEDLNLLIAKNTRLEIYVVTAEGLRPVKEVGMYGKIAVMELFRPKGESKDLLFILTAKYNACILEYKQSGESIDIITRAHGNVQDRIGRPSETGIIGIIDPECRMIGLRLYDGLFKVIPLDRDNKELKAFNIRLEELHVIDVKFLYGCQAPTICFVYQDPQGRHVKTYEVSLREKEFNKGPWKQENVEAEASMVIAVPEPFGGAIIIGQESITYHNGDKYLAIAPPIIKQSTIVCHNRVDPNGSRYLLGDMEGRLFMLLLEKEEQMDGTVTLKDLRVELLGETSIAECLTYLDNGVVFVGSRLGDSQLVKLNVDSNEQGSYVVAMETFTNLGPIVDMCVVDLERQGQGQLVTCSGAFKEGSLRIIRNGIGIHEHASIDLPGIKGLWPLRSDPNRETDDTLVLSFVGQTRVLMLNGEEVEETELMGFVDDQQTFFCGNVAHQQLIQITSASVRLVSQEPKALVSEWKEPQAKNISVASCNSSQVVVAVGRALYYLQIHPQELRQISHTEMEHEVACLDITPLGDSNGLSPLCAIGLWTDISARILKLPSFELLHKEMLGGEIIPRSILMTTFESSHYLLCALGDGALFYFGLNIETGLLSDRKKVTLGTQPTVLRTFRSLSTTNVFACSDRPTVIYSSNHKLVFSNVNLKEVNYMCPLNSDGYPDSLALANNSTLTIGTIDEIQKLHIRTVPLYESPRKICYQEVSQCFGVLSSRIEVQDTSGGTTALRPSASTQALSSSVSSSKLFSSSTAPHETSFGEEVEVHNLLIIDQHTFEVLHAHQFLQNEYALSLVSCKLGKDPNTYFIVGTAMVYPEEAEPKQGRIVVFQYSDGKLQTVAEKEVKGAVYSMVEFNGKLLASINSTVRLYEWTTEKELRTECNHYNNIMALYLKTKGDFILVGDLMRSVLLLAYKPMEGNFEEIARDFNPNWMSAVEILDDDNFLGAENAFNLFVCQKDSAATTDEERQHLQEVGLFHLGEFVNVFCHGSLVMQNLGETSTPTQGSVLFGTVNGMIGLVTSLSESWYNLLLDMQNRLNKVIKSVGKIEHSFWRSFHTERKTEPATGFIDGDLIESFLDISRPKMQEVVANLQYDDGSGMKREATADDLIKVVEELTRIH
Chain of NEK7 (Q8TDX7 whole entry): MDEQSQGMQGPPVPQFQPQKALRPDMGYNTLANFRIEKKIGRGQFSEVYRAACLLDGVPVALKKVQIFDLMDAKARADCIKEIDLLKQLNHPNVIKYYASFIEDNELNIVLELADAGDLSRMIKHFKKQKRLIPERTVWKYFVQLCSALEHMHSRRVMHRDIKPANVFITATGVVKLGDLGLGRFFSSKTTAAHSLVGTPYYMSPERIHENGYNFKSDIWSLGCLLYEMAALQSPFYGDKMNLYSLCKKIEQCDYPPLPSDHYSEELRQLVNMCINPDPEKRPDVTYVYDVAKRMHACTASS
Chain of NEK7 (Q96SW2 whole entry): as the sequence (Q96SW2 whole entry) above
Chain of NEK7 (Q16531 2-1140 partner): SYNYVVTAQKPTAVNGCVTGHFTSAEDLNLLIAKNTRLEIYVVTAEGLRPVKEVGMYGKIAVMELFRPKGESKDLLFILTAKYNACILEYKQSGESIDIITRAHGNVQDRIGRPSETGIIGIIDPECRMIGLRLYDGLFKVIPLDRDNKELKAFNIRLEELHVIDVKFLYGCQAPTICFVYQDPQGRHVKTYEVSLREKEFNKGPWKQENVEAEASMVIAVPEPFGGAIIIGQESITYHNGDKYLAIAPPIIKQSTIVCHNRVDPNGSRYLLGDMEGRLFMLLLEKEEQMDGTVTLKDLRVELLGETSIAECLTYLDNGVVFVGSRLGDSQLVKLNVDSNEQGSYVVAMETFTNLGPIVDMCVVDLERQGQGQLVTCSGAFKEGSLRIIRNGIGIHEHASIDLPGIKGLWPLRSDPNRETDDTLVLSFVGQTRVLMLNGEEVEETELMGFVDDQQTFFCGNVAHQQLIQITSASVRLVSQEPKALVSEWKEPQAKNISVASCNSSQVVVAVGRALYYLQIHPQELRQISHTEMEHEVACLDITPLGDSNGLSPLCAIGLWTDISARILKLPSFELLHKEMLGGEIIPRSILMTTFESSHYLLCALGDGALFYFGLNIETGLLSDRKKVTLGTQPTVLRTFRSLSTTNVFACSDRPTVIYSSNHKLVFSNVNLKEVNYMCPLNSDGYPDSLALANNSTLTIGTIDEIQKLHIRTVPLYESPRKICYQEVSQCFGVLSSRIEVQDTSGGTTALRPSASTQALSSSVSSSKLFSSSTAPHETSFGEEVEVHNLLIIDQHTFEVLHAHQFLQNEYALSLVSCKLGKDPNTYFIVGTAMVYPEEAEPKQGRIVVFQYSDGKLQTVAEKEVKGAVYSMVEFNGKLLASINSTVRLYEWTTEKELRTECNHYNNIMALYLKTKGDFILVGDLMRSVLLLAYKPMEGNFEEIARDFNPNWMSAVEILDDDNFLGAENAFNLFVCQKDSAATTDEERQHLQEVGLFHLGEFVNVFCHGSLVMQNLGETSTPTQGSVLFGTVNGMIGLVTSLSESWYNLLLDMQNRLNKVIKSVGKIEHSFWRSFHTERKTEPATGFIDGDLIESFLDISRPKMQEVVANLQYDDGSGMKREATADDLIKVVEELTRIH

Row | EC50 (CRBN-DDB1) [nM] | EC50 (CRBN-DDB1; HTRF class, Cereblon binding) [nM] | Dmax (NEK7; read-out: NEK7 NanoBiT Dmax) [%] | Dmax (NEK7; [1]) [%] | DC50 (NEK7; read-out: NEK7 NanoBiT DC50) [nM] | DC50 (NEK7; [2]) [nM] | SMILES
1 | 110 | 100 to 1000 | 94 | > 75 | 3 | ≤ 100 | CC(C)(C(=O)NCc1cc(Cl)c(C2CCC(=O)NC2=O)c(Cl)c1)c1cc2ncccc2cn1 (stereo not drawn) [Compound 2, N-(3,5-dichloro-4-(2,6-dioxopiperidin-3-yl)benzyl)-2-methyl-2-(1,6-naphthyridin-7-yl)propanamide]
2 | 500 | 100 to 1000 | 65 | 50 to 75 | 242 | 100 to 1000 | CC(C)(C(=O)NCc1ccc(C2CCC(=O)NC2=O)c(Cl)c1)c1cnc(F)nc1 (stereo not drawn) [Compound 3]
3 | 120 | 100 to 1000 | 94 | > 75 | 3 | ≤ 100 | CC(C)(C(=O)NCc1cc(Cl)c(C2CCC(=O)NC2=O)c(Cl)c1)c1ccc(C(F)F)cn1 (stereo not drawn) [Compound 4, N-(3,5-dichloro-4-(2,6-dioxopiperidin-3-yl)benzyl)-2-(5-(difluoromethyl)pyridin-2-yl)-2-methylpropanamide]
4 | 150 | 100 to 1000 | 72 | 50 to 75 | 61 | ≤ 100 | CC(C)(C(=O)NCc1cc(Cl)c(C2CCC(=O)NC2=O)c(Cl)c1)c1cccnn1 (stereo not drawn) [Compound 7, N-(3,5-dichloro-4-(2,6-dioxopiperidin-3-yl)benzyl)-2-methyl-2-(pyridazin-3-yl)propanamide]
5 | 210 | 100 to 1000 | 93 | > 75 | 6 | ≤ 100 | CC(C)(C(=O)NCc1cc(Cl)c(C2CCC(=O)NC2=O)c(Cl)c1)c1ncncc1F (stereo not drawn) [Compound 8]
6 | 190 | 100 to 1000 | 90 | > 75 | 9 | ≤ 100 | CC(C)(C(=O)NCc1cc(Cl)c(C2CCC(=O)NC2=O)c(Cl)c1)c1ncc(F)cn1 (stereo not drawn) [Compound 11]
7 | 170 | 100 to 1000 | 91 | > 75 | 8 | ≤ 100 | Cc1ccc(C(C)(C)C(=O)NCc2cc(Cl)c(C3CCC(=O)NC3=O)c(Cl)c2)nn1 (stereo not drawn) [Compound 12]
8 | 200 | 100 to 1000 | 73 | 50 to 75 | 56 | ≤ 100 | CC(C)(C(=O)NCc1cc(Cl)c(C2CCC(=O)NC2=O)c(Cl)c1)c1cnc(C#N)nc1 (stereo not drawn) [Compound 13]
9 | 120 | 100 to 1000 | 95 | > 75 | 4 | ≤ 100 | CC(C)(C(=O)NCc1cc(Cl)c(C2CCC(=O)NC2=O)c(Cl)c1)c1ccc(C#N)cn1 (stereo not drawn) [Compound 15, 2-(5-cyanopyridin-2-yl)-N-(3,5-dichloro-4-(2,6-dioxopiperidin-3-yl)benzyl)-2-methylpropanamide]
10 | 540 | 100 to 1000 | 61 | 50 to 75 | 206 | 100 to 1000 | CC(C)(C(=O)NCc1ccc(C2CCC(=O)NC2=O)c(Cl)c1)c1cccc(C#N)c1 (stereo not drawn) [Compound 18]
11 | 70 | ≤ 100 | 86 | > 75 | 13 | ≤ 100 | CC(C)(C(=O)NCc1cc(Cl)c(C2CCC(=O)NC2=O)c(Cl)c1)c1ccccn1 (stereo not drawn) [Compound 20]
12 | 90 | ≤ 100 | 94 | > 75 | 3 | ≤ 100 | CC(C)(C(=O)NCc1cc(Cl)c(C2CCC(=O)NC2=O)c(Cl)c1)c1cccc(C#N)c1 (stereo not drawn) [Compound 21, 2-(3-cyanophenyl)-N-(3,5-dichloro-4-(2,6-dioxopiperidin-3-yl)benzyl)-2-methylpropanamide]
13 | 120 | 100 to 1000 | 93 | > 75 | 4 | ≤ 100 | CC(C)(C(=O)NCc1cc(Cl)c(C2CCC(=O)NC2=O)c(Cl)c1)c1ccc(F)cn1 (stereo not drawn) [Compound 22]
14 | 220 | 100 to 1000 | 88 | > 75 | 22 | ≤ 100 | CC(C)(C(=O)NCc1cc(Cl)c(C2CCC(=O)NC2=O)c(Cl)c1)c1ccn(CC(F)(F)F)c(=O)c1 (stereo not drawn) [Compound 23]
15 | 320 | 100 to 1000 | 74 | 50 to 75 | 76 | ≤ 100 | CC(C)(C(=O)NCc1ccc(C2CCC(=O)NC2=O)c(Cl)c1)c1ccccc1F (stereo not drawn) [Compound 24]
16 | 70 | ≤ 100 | 96 | > 75 | 2 | ≤ 100 | CC(C)(C(=O)NCc1cc(Cl)c(C2CCC(=O)NC2=O)c(Cl)c1)c1ccccc1F (stereo not drawn) [Compound 26]

Row | SMILES | EC50 (CRBN-DDB1) [nM] | EC50 (CRBN-DDB1; HTRF class, Cereblon binding) [nM] | Dmax (NEK7; read-out: NEK7 NanoBiT Dmax) [%] | Dmax (NEK7; [1]) [%] | DC50 (NEK7; read-out: NEK7 NanoBiT DC50) [nM] | DC50 (NEK7; [2]) [nM]
17 | CC(C)(C(=O)NCc1cc(Cl)c(C2CCC(=O)NC2=O)c(Cl)c1)c1cnc(F)nc1 (stereo not drawn) [Compound 5, N-(3,5-dichloro-4-(2,6-dioxopiperidin-3-yl)benzyl)-2-(2-fluoropyrimidin-5-yl)-2-methylpropanamide] | 120 | 100 to 1000 | 63 | 50 to 75 | 133 | 100 to 1000
18 | CC(C)(C(=O)NCc1cc(Cl)c(C2CCC(=O)NC2=O)c(Cl)c1)c1ccc(C(F)F)nn1 (stereo not drawn) [Compound 6, N-(3,5-dichloro-4-(2,6-dioxopiperidin-3-yl)benzyl)-2-(6-(difluoromethyl)pyridazin-3-yl)-2-methylpropanamide] | 210 | 100 to 1000 | 91 | > 75 | 7 | ≤ 100
19 | Cn1ncc(C(C)(C)C(=O)NCc2cc(Cl)c(C3CCC(=O)NC3=O)c(Cl)c2)cc1=O (stereo not drawn) [Compound 9, N-(3,5-dichloro-4-(2,6-dioxopiperidin-3-yl)benzyl)-2-methyl-2-(1-methyl-6-oxo-1,6-dihydropyridazin-4-yl)propanamide] | 210 | 100 to 1000 | 85 | > 75 | 22 | ≤ 100
20 | CC(C)(C(=O)NCc1cc(Cl)c(C2CCC(=O)NC2=O)c(Cl)c1)c1ccc2ncoc2c1 (stereo not drawn) [Compound 10, 2-(benzo[d]oxazol-6-yl)-N-(3,5-dichloro-4-(2,6-dioxopiperidin-3-yl)benzyl)-2-methylpropanamide] | 60 | ≤ 100 | 97 | > 75 | 1 | ≤ 100
21 | CC(C)(C(=O)NCc1cc(Cl)c(C2CCC(=O)NC2=O)c(Cl)c1)c1ccncn1 (stereo not drawn) [Compound 19, N-(3,5-dichloro-4-(2,6-dioxopiperidin-3-yl)benzyl)-2-methyl-2-(pyrimidin-4-yl)propanamide] | 140 | 100 to 1000 | 84 | > 75 | 23 | ≤ 100
22 | CC(C)(C(=O)NCc1ccc(C2CCC(=O)NC2=O)c(Cl)c1)c1cccc(F)c1 (stereo not drawn) [Compound 25, N-(3-chloro-4-(2,6-dioxopiperidin-3-yl)benzyl)-2-(3-fluorophenyl)-2-methylpropanamide] | 290 | 100 to 1000 | 87 | > 75 | 23 | ≤ 100
